Results reported in patent US20160346347A1 (Oculis ehf., priority 2015, published 2016).

Assays:
[1] = format: physicochemical
Description: An excess amount of drug was added to aqueous solutions containing up to 20% (w/v) cyclodextrin. The solutions were sonicated at 40-50° C. for 45-60 minutes in sealed glass vials, and then allowed to cool to room temperature (22-23° C.). Small amount of solid drug was then added to each vial, the vial resealed and allowed to equilibrate under constant agitation and protected from light for 7 days at room temperature. When the solutions had reached equilibrium, they were filtered through a 0.45 μm membrane filter and analyzed by high pressure liquid chromatography. […] The complexation efficiency (CE) was determined from the slope of phase-solubility diagrams (plots of total solubility of the drug versus total CD concentration in mol/l) where S0 is the intrinsic solubility of the drug:
The mobile phase consisted of acetonitrile, methanol and water (60:20:20), the flow rate was 1 ml/min, the column oven temperature was 80° C. and the detection wavelength was 205 nm.

[2] = in water (β-cyclodextrin: pure water at room temperature); cited from earlier work

Molecule | CE (complexation efficiency) [1] | Solubility in the presence of 5% (w/v) cyclodextrin [1] | Solubility in the presence of 15% (w/v) cyclodextrin [1] | aqueous solubility of the cyclodextrin [2]
Randomly methylated β-cyclodextrin | 0.053 | 130 µg/mL |  | 
OC[C@H]1O[C@@H]2O[C@H]3[C@H](O)[C@@H](O)[C@@H](O[C@H]4[C@H](O)[C@@H](O)[C@@H](O[C@H]5[C@H](O)[C@@H](O)[C@@H](O[C@H]6[C@H](O)[C@@H](O)[C@@H](O[C@H]7[C@H](O)[C@@H](O)[C@@H](O[C@H]8[C@H](O)[C@@H](O)[C@@H](O[C@H]9[C@H](O)[C@@H](O)[C@@H](O[C@H]1[C@H](O)[C@H]2O)O[C@@H]9CO)O[C@@H]8CO)O[C@@H]7CO)O[C@@H]6CO)O[C@@H]5CO)O[C@@H]4CO)O[C@@H]3CO [γ-Cyclodextrin] | 0.0049 | 62 ± 0.6 µg/mL | 110 ± 1.5 µg/mL | 25 % (w/v)
2-Hydroxypropyl-γ-cyclodextrin | 0.0011 | 48 ± 4 µg/mL | 62 ± 5 µg/mL | 
2-Hydroxypropyl-α-cyclodextrin | 0.031 | 84 µg/mL | 460 µg/mL | 
OC[C@H]1O[C@@H]2O[C@H]3[C@H](O)[C@@H](O)[C@@H](O[C@H]4[C@H](O)[C@@H](O)[C@@H](O[C@H]5[C@H](O)[C@@H](O)[C@@H](O[C@H]6[C@H](O)[C@@H](O)[C@@H](O[C@H]7[C@H](O)[C@@H](O)[C@@H](O[C@H]8[C@H](O)[C@@H](O)[C@@H](O[C@H]1[C@H](O)[C@H]2O)O[C@@H]8CO)O[C@@H]7CO)O[C@@H]6CO)O[C@@H]5CO)O[C@@H]4CO)O[C@@H]3CO [β-Cyclodextrin] | 0.030 |  |  | 2 % (w/v)
OC[C@H]1O[C@@H]2O[C@H]3[C@H](O)[C@@H](O)[C@@H](O[C@H]4[C@H](O)[C@@H](O)[C@@H](O[C@H]5[C@H](O)[C@@H](O)[C@@H](O[C@H]6[C@H](O)[C@@H](O)[C@@H](O[C@H]7[C@H](O)[C@@H](O)[C@@H](O[C@H]1[C@H](O)[C@H]2O)O[C@@H]7CO)O[C@@H]6CO)O[C@@H]5CO)O[C@@H]4CO)O[C@@H]3CO [α-Cyclodextrin] | 0.54 | 760 ± 16 µg/mL |  | 13 % (w/v)
